From US20110070326A1, “OREGANO EXTRACT AND ITS COMPONENTS FOR ENHANCING VIGILANCE” (DSM IP ASSETS B.V., priority 2006, published 2011)
Where “and” joins values, the source holds several entries; their conditions need not be identical. Identical values can stand only once.

Tests used:
[1] = Plasma level of free and total carvacrol after oral oregano extract 4 (LC/MS/MS); format: in vivo, rat; details: individual animals
Description: 4 male and 4 female rats received a single dose of 800 mg of oregano extract 4 per kg body weight by oral gavage, respectively. The application solution was prepared in corn oil at a concentration of 200 mg extract per gram formulation.
The sample analysis was performed with a liquid chromatography—tandem mass spectrometry (LC/MS/MS) system, using a column switching system for online cleaning and desalting of the samples.
After addition of internal standard (D2-thymol) and protein precipitation (in case of “free” analyte) or pre-digesting by β-glucuronidase followed by protein precipitation (in case of “total” analyte), the samples were injected on a Waters XTerra™ MS C18 guard-column used as purification column, then transferred onto a Waters XTerra™ C18 column. Detection was performed using tandem mass spectrometry in MRM mode.
Calibration and quality control samples were prepared in 5% Albumin bovine serum solution and human plasma.

[2] = tested on: mouse; test: Light Dark Box Test in the mouse; format: in vivo; details: 16 mg/kg i.p. −30 min; for NUMBER OF CROSSINGS mean ± s.e.m. / TIME SPENT IN LIGHT COMPARTMENT (s) mean ± s.e.m.: 3-minute test, 15 mice
Excerpt: The method, which detects anxiolytic activity, follows that described by Crawley, 1981 Pharmacol. Biochem. Behav., 15: 695-699. Anxiolytics increase the time spent in the light compartment.
Animals were placed into the light compartment of a 2-compartment box with one half light and open (25×27×27 cm) and the other half dark and closed (20×27×27 cm). The time spent in each compartment, as well as the number of times the animal crosses from one side to the other, is scored during a 3-minute test. 15 mice were studied per group. The test was performed blind.
Oregano extract 1 was evaluated at 3 doses (10, 30 and 60 mg/kg), administered i.p. 30 minutes before the test, and compared with a vehicle control group. Oregano extract 1 was dissolved in a saline solution containing 3% (v/v) DMSO and 3% (v/v) Tween® 80 (“vehicle”). The control group was administered vehicle, venlafaxine (16 mg/kg i.p) was used as comparison substance and clobazam (16 mg/kg i.p) was used as reference substance, all being administered i.p., 30 minutes prior to the test.

[3] = tested on: hippocampal serotonin (5HT) levels; test: Hippocampal serotonin levels by in vivo microdialysis; design: species or system rat; details: cumulative 5HT in dosing period, n = 5-6 rats
Description: Male Sprague-Dawley rats (250-320 g) were housed in groups of 4-5 under conditions of controlled temperature (21±2° C.) and humidity (55±10%) with free access to food and water (lights on 07.00-19.00). Rats were anaesthetised using chloral hydrate (400 mg/kg i.p.) and a single microdialysis probe (BASi type MD2200, 2 mm membrane, 30,000 dalton cut-off) implanted in the dorsal hippocampus using a stereotaxic frame at the following coordinates (rostro-caudal—4.5 mm; media-lateral—2.5 mm; dorso-ventral—4.5 mm from bregma and dura surface according to Paxinos & Watson 6) and fixed in position with dental cement. Body temperature was maintained at 36° C. using a heating pad and monitored via a digital rectal thermometer. The microdialysis probe was perfused with artificial cerebrospinal fluid (aCSF) at 1 μl/min and extracellular monoamine levels determined by collection of perfusate samples every 15 min and assayed using high-performance liquid chromatography (HPLC) with electrochemical detection.
The HPLC mobile phase (0.5 mM EDTA, 0.1M monochloroacetic acid pH 3.1, 0.15 g/L sodium octyl sulphate, 5% acetonitrile, 0.7% tetrahydrofuran) was pumped through the system at 70 μl/min. Monoamines were separated using a reverse-phase 1×100 mm ODS 3 mm microbore column with 5 μl injection loop and detected using a Epsilon electrochemical detector (BAST) with a glassy carbon electrode set at +650 mV versus Ag/AgCl reference electrode. Dialysate peaks were identified by comparing peak elution times with reference standards and quantified according to measurement of peak area using linear regression analysis. The detection limits for 5HT and SHIAA were defined as the sample amount producing a peak area twice that of the background noise per unit time and were approximately 0.1 fmol/sample in both cases. […]
For routine assay, two rats were prepared of which one was used to test the oregano extract and the other a control (vehicle) sample. […] Data from replicate studies for each compound are therefore expressed as % Basal level, as is normal practice for microdialysis studies. […]

[4] = tested on: mice; test: Marble burying test; format: in vivo, mouse; details: for NUMBER OF MARBLES COVERED BY SAWDUST Mean ± s.e.m.: 25 marbles, 30-minute test, 15 mice
Description: The method applied here follows that described by Broekkamp et al. 1986, supra. Mice (n=15 per treatment group) were individually placed in transparent plastic cages (33×21×18 cm) with 5 cm of sawdust on the floor and 25 marbles (diameter 1 cm) grouped in the centre of the cage. A second, up-tamed, cage served as a lid. The number of marbles covered by sawdust (by at least two-thirds) was counted at the end of the 30-minute test period. Tests were performed by investigators blind to the drug treatment protocol.
Prior to testing, all test cages and marbles were “impregnated” by leaving 10 naive mice in each cage for 15 minutes.
Oregano extract 1 was evaluated at 10, 30 and 60 mg/kg, administered i.p. 30 minutes before the test, and compared with a vehicle control group. Oregano extract 1 was dissolved in a saline solution containing 3% (v/v) DMSO and 3% (v/v) Tween® 80 “vehicle”. The control group were administered vehicle in the same manner, while fluoxetine (32 mg/kg), administered under the same experimental conditions, was used as a reference substance. Data were analyzed by comparing treated groups with vehicle control using unpaired Student's t-tests.

[5] = tested on: mice; test: Porsolt's Forced Swim Test (Behavioral Despair Test), i.p.; format: in vivo, mouse; details: 16 mg/kg i.p., −30 min, 15 mice
Description: The test, which detects antidepressant activity, was carried out as described by Porsolt et al supra. Mice which are forced to swim in a situation from which they cannot escape rapidly become immobile. Antidepressants decrease the duration of immobility.
Mice were individually placed in cylinders (Height=24 cm, Diameter=13 cm) containing 10 cm water (22° C.) from which they could not escape. The mice were placed in the water for 6 minutes and the duration of immobility during the last 4 minutes was measured.
15 mice were studied per each of the four groups.
Oregano extract 1 was evaluated at 3 doses (10, 30 and 60 mg/kg), administered i.p. 30 minutes before the test, and compared with a control group, administered vehicle in the same manner. The thus administered […] was dissolved in vehicle (saline solution containing 3% (v/v) DMSO and 3% (v/v) Tween® 80). Venlafaxine (16 mg/kg, i.p.), as comparison substance, and imipramine (32 mg/kg, i.p.), as reference compound, were administered under the same experimental conditions.
Data were analyzed by comparing the treated groups with the control group using unpaired Student's t tests and are presented in Table 3.

## Cc1ccc(C(C)C)cc1O [Carvacrol]
[1]; female rats, 0.5 h after single 800 mg/kg oregano extract 4 by oral gavage in corn oil
  Free Carvacrol (ng/mL) in plasma: 5120 ng/mL and 4090 ng/mL and 50100 ng/mL and 30.9 ng/mL
[1]; female rats, 1 h after single 800 mg/kg oregano extract 4 by oral gavage in corn oil
  Free Carvacrol (ng/mL) in plasma: 6050 ng/mL and 3610 ng/mL and 192 ng/mL
[1]; female rats, 2 h after single 800 mg/kg oregano extract 4 by oral gavage in corn oil
  Free Carvacrol (ng/mL) in plasma: 840 ng/mL and 1360 ng/mL and 64.3 ng/mL
[1]; female rats, 3 h after single 800 mg/kg oregano extract 4 by oral gavage in corn oil
  Free Carvacrol (ng/mL) in plasma: 228 ng/mL and 174 ng/mL
[1]; female rats, 4 h after single 800 mg/kg oregano extract 4 by oral gavage in corn oil
  Free Carvacrol (ng/mL) in plasma: 246 ng/mL and 102 ng/mL and 50.3 ng/mL
[1]; female rats, 6 h after single 800 mg/kg oregano extract 4 by oral gavage in corn oil
  Free Carvacrol (ng/mL) in plasma: 135 ng/mL and 91.9 ng/mL and 48.3 ng/mL
[1]; female rats, 8 h after single 800 mg/kg oregano extract 4 by oral gavage in corn oil
  Free Carvacrol (ng/mL) in plasma: 159 ng/mL and 1630 ng/mL and <LOQ = 10.0 ng/mL
[1]; female rats, 24 h after single 800 mg/kg oregano extract 4 by oral gavage in corn oil
  Free Carvacrol (ng/mL) in plasma: 127 ng/mL and 8.91 ng/mL and <LOQ = 10.0 ng/mL
[1]; female, rat, plasma, po, 800 mg/kg, Free Carvacrol (ng/mL) in plasma, female rats, 3 h after single 800 mg/kg oregano extract 4 by oral gavage in corn oil
  concentration at 3 h: 128 ng/mL
[1]; male rats, 0.5 h after single 800 mg/kg oregano extract 4 by oral gavage in corn oil
  Free Carvacrol (ng/mL) in plasma: 1530 ng/mL and 103 ng/mL and 55.9 ng/mL and 1320 ng/mL
[1]; male rats, 1 h after single 800 mg/kg oregano extract 4 by oral gavage in corn oil
  Free Carvacrol (ng/mL) in plasma: 1150 ng/mL and 1820 ng/mL
[1]; male rats, 2 h after single 800 mg/kg oregano extract 4 by oral gavage in corn oil
  Free Carvacrol (ng/mL) in plasma: 166 ng/mL and 584 ng/mL and 199 ng/mL
[1]; male rats, 3 h after single 800 mg/kg oregano extract 4 by oral gavage in corn oil
  Free Carvacrol (ng/mL) in plasma: 51.5 ng/mL and 58.4 ng/mL and 1580 ng/mL
[1]; male rats, 4 h after single 800 mg/kg oregano extract 4 by oral gavage in corn oil
  Free Carvacrol (ng/mL) in plasma: 30.4 ng/mL and 40 ng/mL and 316 ng/mL
[1]; male rats, 6 h after single 800 mg/kg oregano extract 4 by oral gavage in corn oil
  Free Carvacrol (ng/mL) in plasma: 83.4 ng/mL and 980 ng/mL and 100 ng/mL
[1]; male rats, 8 h after single 800 mg/kg oregano extract 4 by oral gavage in corn oil
  Free Carvacrol (ng/mL) in plasma: 156 ng/mL and 140 ng/mL
[1]; male rats, 24 h after single 800 mg/kg oregano extract 4 by oral gavage in corn oil
  Free Carvacrol (ng/mL) in plasma: <LOQ = 10.0 ng/mL
[1]; male, rat, plasma, po, 800 mg/kg, Free Carvacrol (ng/mL) in plasma, male rats, 1 h after single 800 mg/kg oregano extract 4 by oral gavage in corn oil
  concentration at 1 h: 1790 ng/mL
[1]; male, rat, plasma, po, 800 mg/kg, Free Carvacrol (ng/mL) in plasma, male rats, 8 h after single 800 mg/kg oregano extract 4 by oral gavage in corn oil
  concentration at 8 h: 185 ng/mL
[1]; male, rat, plasma, po, 800 mg/kg, Free Carvacrol (ng/mL) in plasma, male rats, 24 h after single 800 mg/kg oregano extract 4 by oral gavage in corn oil
  concentration at 24 h: 68.1 ng/mL

## CN1C(=O)CC(=O)N(c2ccccc2)c2cc(Cl)ccc21 [Clobazam]
[2]
  NUMBER OF CROSSINGS % change from control: +68%
  TIME SPENT IN LIGHT COMPARTMENT % change from control: +114%
  NUMBER OF CROSSINGS mean ± s.e.m.: 7.9 ± 0.9
  TIME SPENT IN LIGHT COMPARTMENT (s) mean ± s.e.m.: 118.4 ± 3.4 s

## CNCCC(Oc1ccc(C(F)(F)F)cc1)c1ccccc1 (stereo not drawn) [Fluoxetine]
[3]; 3 mg/kg i.p., injection 150 min post-surgery
  5-HT LEVEL (% basal) Mean ± s.e.m.: 85 ± 4 % basal
[3]; 10 mg/kg i.p., injection 210 min post-surgery
  5-HT LEVEL (% basal) Mean ± s.e.m.: 131 ± 9 % basal
[3]; 30 mg/kg i.p., injection 270 min post-surgery
  5-HT LEVEL (% basal) Mean ± s.e.m.: 160 ± 7 % basal
[4]; 32 mg/kg i.p., −30 min
  NUMBER OF MARBLES COVERED BY SAWDUST % change from control: −93%
  NUMBER OF MARBLES COVERED BY SAWDUST Mean ± s.e.m.: 1.4 ± 1.0

## COc1ccc(C(CN(C)C)C2(O)CCCCC2)cc1 (stereo not drawn) [Venlafaxine]
[2]
  NUMBER OF CROSSINGS % change from control: −6%
  TIME SPENT IN LIGHT COMPARTMENT % change from control: 0%
  NUMBER OF CROSSINGS mean ± s.e.m.: 4.4 ± 0.9
  TIME SPENT IN LIGHT COMPARTMENT (s) mean ± s.e.m.: 55.2 ± 9.3 s
[5]
  DURATION OF IMMOBILITY % change from control: −51%
  DURATION OF IMMOBILITY (s) Mean ± s.e.m.: 80.1 ± 11.1 s
[5]; listed as venlafaxine
  DURATION OF IMMOBILITY % change from control: −51%
[4]; 16 mg/kg i.p. −30 min
  NUMBER OF MARBLES COVERED BY SAWDUST % change from control: −98%
[4]; 16 mg/kg i.p., −30 min
  NUMBER OF MARBLES COVERED BY SAWDUST Mean ± s.e.m.: 0.5 ± 0.3
[4]; 16 mg/kg i.p., −30 min, listed as venlafaxine
  NUMBER OF MARBLES COVERED BY SAWDUST % change from control: −98%
